{"source": "patent US6429291B1", "about": "“Hyaluronan receptor protein” (priority 1994, dated 2002)", "key": {"[1]": {"system": "smooth muscle cells", "assay": "Smooth muscle cell migration after wounding of monolayers", "type": "cell-based, bovine", "settings": "peptides 2 μg/ml", "method": "Smooth muscle cells were isolated from bovine aorta as described previously from rat aorta (Majack et al., 1984) and were maintained in Dulbecco's Modified Eagles medium (DME) supplemented with 10% fetal calf serum (FCS) and 20 mM HEPES buffer, pH 7.2 at 37° C. and 5% CO2 in air. All experiments were performed using defined medium [DME with 20 mM HEPES buffer, pH 7.2, 0.5 U/ml insulin (beef and pork zinc suspension, Novo Laboratories Ltd., Willowdale, Ontario) and 4 μg/ml transferrin (Sigma Chemical Co., St. Louis, Mo.)], and the culture medium was replaced 24 hours before filming. Wounding injury to confluent monolayers consisted of removal of half the monolayer using a cell lifter followed by the addition of fresh defined medium in the presence of either RHAMM peptide aa401-411 or the scrambled peptide of the same domain as described above.\nThe HA-binding region of RHAMM consists of two 10 amino acid domains located close to the carboxy terminus of the protein (Yang, 1993). A peptide mimicking Domain 1 (amino acids 401-411)—YKQKIKHVVKLK—and a scrambled peptide consisting of the same amino acids arranged in a random manner—YLKQKKVKKHIV—were synthesized. Both peptides were used at a final concentration of 2 μg/ml in locomotion assays.\nInjured cell monolayers were monitored for motility using an IM 35 Zeiss inverted microscope to which a video camera (Hamamatsu CCD, Inc., Japan) was attached. The cells were maintained at 37° C. using a heated platform (TRZ 3700, Zeiss, Germany). Cell locomotion was followed by using image analysis (Image 1, Universal Imaging Corp., Westchester, Pa. This program allows quantification of nuclear displacement from a sequence of digitalized images. The motility of thirty cells in each experiment was followed for a period of 24 hours with mean velocities calculated every hour."}, "[2]": {"system": "C3 fibroblasts", "assay": "Cell locomotion assay, timelapse image analysis of C3 fibroblasts", "type": "cell-based, murine", "settings": "70% confluent C3, 2 h", "method": "For motility experiments, 10^5 cells were subcultured into 25 cm^2 tissue culture flasks (Corning), and maintained for 12 h as above. The medium was then aspirated, cells were rinsed with Hanks Balanced Salt Solution (HBSS) (Gibco) and fresh, serum-free α-MEM containing 4.0 μg/ml transferrin (Gibco) and 2.0 μg/ml insulin (Sigma) (defined medium) was added to the flasks.\nCell locomotion was recorded using a computerized timelapse analysis system (Image 1, Universal Imaging Corporation, Westchester, Pa.) that measures nuclear displacement. During the filming period, cells were maintained at 37° C. in defined-media at physiological pH.\nA 10 amino acid peptide corresponding to one of the HA binding domains of RHAMM, peptide^aa423-432 (Yang et al., 1993), was synthesised and added at various concentrations (0,0.1, 1.0, 5.0, 10.0 and 50.0 ng/ml) to 70% confluent C3 fibroblasts. Cell locomotion was monitored by image analysis for 2 h from the addition of the peptide. A scrambled peptide was used as control.\nRHAMM-GST fusion protein prepared and purified as described in (b) above was added at concentrations of 1 pg/ml, 1 ng/ml, 1 μg/ml and 1 mg/ml to 70% confluent C3 cultures and cell locomotion was monitored by image analysis for 2 h from protein addition as described in Example 5.\nFor each experiment, 30 cells were tracked every 10 min for a 1 hr period.\nRHAMM-GST fusion protein, as described in (d) above, and deleted/mutated RHAMM-GST fusion protein, as described in (h) above were added at 5 ng/ml to subconfluent cultures of C3 cells and cell locomotion was monitored by image analysis for 2 h from protein addition as described in Example 5."}, "[3]": {"system": "human breast cancer cell lines", "assay": "Locomotion of human breast cancer cell lines (timelapse image analysis)", "type": "cell-based", "settings": "R3 5 μg/ml; peptide I 2 μg/ml; P<0.001", "method": "Cells were cultured as described above. For cell locomotion studies, aliquots of 10^5 cells were added to a 25 cm^2 tissue culture flask (Corning). After 24 hours of growth, cells were washed with calcium and magnesium free Hank's balanced salt solution (HBSS) (Gibco BRL), the defined serum-free media (DM), DMEM supplied with 4.0 μg/ml transferrin (Human, Gibco BRL), 0.5 U/ml Lente insulin (beef and pork, Connaught Novo Ltd., Willowdale, Ontario) and 20 mM Hepes, PH 7.2, was added to the flasks. Twelve hours later, cell locomotion was recorded by using a computerized timelapse image analysis system (Image-1, Universal Image Corporation, Westchester, Pa.) which quantitates nuclear displacement Antibody—R3 (5 μg/ml), peptide I (2 μg/ml), control rabbit IgG (5 μg/ml) or scrambled peptide I (2 μg/ml) were added to media 20 min before the beginning of filming. Images were taken with a Zeiss inverted microscope (model IM35, Zeiss) using a 10× objective every 30 min for 3 hours. A minimum of 30 cells were tracked in each above experimental condition; experiments done in triplicate."}, "[4]": {"system": "Human neutrophils", "assay": "Neutrophil chemotaxis to IL-8 (modified Boyden chamber)", "type": "cell-based", "settings": "100 ng/ml IL-8", "method": "Human neutrophils were obtained from peripheral blood samples of normal volunteers and mixed in ACD solution (0.085 M trisodium citrate, 0.065 M citric acid, 2% dextrose) to prevent clotting. Five percent dextran was added and the separated plasma and white blood cells were removed. The cells were washed twice in PBS, pH 7.2 and a Ficoll gradient was used to separate the lymphocytes. The isolated neutrophils were then washed and resuspended in PBS. Red cells were lysed by brief exposure to hypotonic PBS.\n(§1) Chemotaxis was stimulated using either bacterial endotoxin-activated mouse serum (AS), prepared according to Stevenson et al. (1981) for macrophages and macrophage cell lines, or 100 ng/ml interleukin-8 (IL-8) for neutrophils. Heat-inactivated serum (56° C. for 20 mintes) or medium served as negative controls respectively. The chemotactic assay used was a colorometric assay described in Shi et al., (1993). […] The number of displaced cells was quantified by the addition of 3-(4.5-dimethylthiazol-2-yl)-2,5-[…] tetrazolium bromide (MTT) to a final concentration of 250 μg/ml that was incubated at 37° C. for 4 hours. […] The plate was analysed within 2 hours on a microtiter plate ELISA reader with a filter of 540 nm. […]"}, "[5]": {"system": "macrophage cell line S1", "assay": "Macrophage chemotaxis to endotoxin-activated mouse serum, S1", "type": "cell-based", "method": "(§2) The macrophage cell lines S1 and WEHI-3 (Branch et al., 1989) were used to analyze the effect of antibodies and synthetic peptide on macrophage chemotaxis to endotoxin-activated mouse serum (AS). These cells lines were also maintained in DME with 10% FCS and 20 mM Hepes buffer, pH 7.2 at 37° C. and 5% CO2 in air.\nas §1, with “(1993). Briefly, a 96-well chemotaxis chamber with a lower recess large enough to hold a microtiter plate (Neuro Probe, stock#MBA96) and a 5 μm framed filter (Neuro Probe, stock#PFD5/A) were used. The microtiter plate was filled with chemoattractants and controls and placed in the recess of the chemotaxis chamber.” for “(1993).”"}, "[6]": {"system": "macrophage cell line WEHI-3", "assay": "Macrophage chemotaxis to endotoxin-activated mouse serum, WEHI-3", "type": "cell-based", "method": "as §2\nas §1, with “(1993). Briefly, a 96-well chemotaxis chamber with a lower recess large enough to hold a microtiter plate (Neuro Probe, stock#MBA96) and a 5 μm framed filter (Neuro Probe, stock#PFD5/A) were used. The microtiter plate was filled with chemoattractants and controls and placed in the recess of the chemotaxis chamber.” for “(1993).”"}, "[7]": {"system": "C3 fibroblasts", "assay": "Focal adhesion formation (vinculin immunofluorescence) and cell spreading of C3 fibroblasts", "type": "cell-based, murine", "settings": "for cells with focal adhesion staining (vinculin plaque-positive cells): 100 ng/mL", "method": "The ras-transformed 10T½ cells termed C3 (Egan et al., 1987) were grown on fibronectin coated glass coverslips for 24 hrs. The cells were then exposed to RHAMM I-2a (1 ng/ml to 1 mg/ml) for 2 hrs at 37° C. before fixing with 3% paraformaldehyde/phosphate buffered saline (PBS). Cells were then washed three times with 10% fetal calf serum PBs, permeabilized with 0.2% triton X-100/PBS for 3 min, and washed again. The coverslips were then incubated with anti-vinculin (Sigma, 1:75 dilution) or an identical concentration of nonspecific mouse IgG for 1 hr at 37° C. After washing, the coverslips were incubated with rhodamine labelled goat anti-mouse antibody (1:200, Sigma) for 2 hrs at room temperature. After further washings, the coverslips were mounted on glass slides and viewed on a Zeiss Axiovert 35 M fluorescent microscope."}}, "note": "“Also recorded” adds a separate entry of the source."}
{"molecule": "YLKQKKVKKHIV [scrambled peptide, same amino acids as peptide aa401-411 arranged in a random manner, reference compound]", "values": [{"measurement": "effect on rate of translocation of smooth muscle cells after wounding", "setting": "[1]", "result": "no effect on the wounding response"}]}
{"molecule": "peptide^aa423-432: 10 amino acid peptide corresponding to one of the HA binding domains of RHAMM (KEVELEKHIA; UniProt Q00547 423-432, looked up, fragment)", "values": [{"measurement": "concentration at which cell locomotion was significantly inhibited", "setting": "[2]", "result": "≥ 5", "unit": "ng/mL"}]}
{"molecule": "YKQKIKHVVKLK [peptide aa^401-411]", "values": [{"measurement": "effect on locomotion of all cell lines", "setting": "[3]", "result": "reduced significantly"}, {"measurement": "effect on neutrophil chemotaxis to IL-8", "setting": "[4]", "result": "completely inhibited; also recorded: significantly inhibited"}, {"measurement": "effect on chemotaxis to endotoxin-activated mouse serum", "setting": "[5]", "result": "inhibited"}, {"measurement": "effect on chemotaxis to endotoxin-activated mouse serum", "setting": "[6]", "result": "inhibited"}, {"measurement": "effect on rate of translocation of smooth muscle cells after wounding", "setting": "[1]", "result": "significantly reduced the rate of translocation"}, {"measurement": "effect on rate of translocation of smooth muscle cells after wounding", "setting": "[1]; listed as Peptide aa^401-411", "result": "significantly inhibited the rate of translocation"}]}
{"molecule": "RHAMM I-2a-GST fusion protein: GST fusion protein of the secreted RHAMM isoform I-2a (with alternatively spliced exon 2A) (protein) MRALSLELMKLRNKRETKMRSMMVKQEGMELKLQATQKDLTESKGKIVQLEGKLVSIEKEKIDEKCETEKLLEYIQEISCASDQVEKCKVDIAQLEEDLKEKDREILSLKQSLEENITFSKQIEDLTVKCQLLETERDNLVSKDRERAETLSAEMQILTERLALERQEYEKLQQKELQSQSLLQQEKELSARLQQQLCSFQEEMTSEKNVFKEELKLALAELDAVQQKEEQSERLVKQLEEERKSTAEQLTRLDNLLREKEVELEKHIAAHAQAILIAQEKYNDTAQSLRDVTAQLESVQEKYNDTAQSLRDVTAQLESEQEKYNDTAQSLRDVTAQLESEQEKYNDTAQSLRDVTAQLESVQEKYNDTAQSLRDVTAQLESYKSSTLKEIEDLKLENLTLQEKVAMAEKSVEDVQQQILTAESTNQEYARMVQDLQNRSTLKEEEIKEITSSFLEKITDLKNQLRQQDEDFRKQLEEKGKRTAEKENVMTELTMEINKWRLLYDELYEKTKPFQQQLDAFEAEKQALLNEHGATQEQLNKIRDSYAQLLGHQNLKQKIKHVVKLKDENSQLKSEVSKLRSQLVKRKQNELRLQGELDKALGIRHFDPSKAFCHASKENFTPLKEGNPNCC", "values": [{"measurement": "cells being vinculin plaque positive", "setting": "[7]; 1 ng/mL, 2 hrs", "result": 75, "unit": "%"}, {"measurement": "cells with focal adhesion staining (vinculin plaque-positive cells)", "setting": "[7]; 2 hrs", "result": "< 50", "unit": "%"}, {"measurement": "cells with focal adhesion staining (vinculin plaque-positive cells)", "setting": "[7]; 2 hrs, listed as RHAMM I-2a", "result": "> 50", "unit": "%"}, {"measurement": "vinculin plaque-positive cells", "setting": "[7]; 1 mg/mL, 2 hrs", "result": "> 50", "unit": "%"}, {"measurement": "effect on cell morphology", "setting": "[7]; various concentrations for 2 hours, data not shown", "result": "stimulate cell spreading"}]}
